Test results reported in paper PMC7278359, “Small molecule AX-024 reduces T cell proliferation independently of CD3ϵ/Nck1 interaction, which is governed by a domain swap in the Nck1-SH3.1 domain” (The Journal of Biological Chemistry, 2020).

Assays:
CD8 T cell proliferation = CD8 T cell proliferation by CFSE dilution; format: cell-based, human; settings: concentrations low enough to avoid cytotoxic effects; data not shown
Experimental: (§1) Fresh human peripheral blood mononuclear cells (PBMCs) from healthy donors (n = 4) were prepared from buffy coats. CD3^+ T cells were isolated by immunomagnetic separation (negative selection, StemCell, lot 18A87710), carboxyfluorescein succinimidyl ester (CFSE)-labeled, resuspended in StemCell Immunocult^TM-XF T cell expansion medium, and treated with compounds or vehicle for 2 h at room temperature. The isolated CD3^+ T cells were stained for CD3, CD4, and CD8, and their purity was assessed by flow cytometry. Cells were then cultured in a 96-well flat-bottomed plate (10^5 cells/well), precoated for 1 h at 37 °C with 0.2 μg·ml^−1 plate-bound anti-CD3 (clone OKT3, BioLegend). […] Cells were cultured in the presence of AX-024, rapamycin, peptide 11Rwt, peptide 11R85, peptide 11Rscr (derived from Ref. [11]; see below for sequences), or vehicle for 4 days. At the end of culture, cells were stained for viability, and CFSE dilution was assessed by flow cytometry (with gating on CD4 versus CD8).

CD4 T cell = experiment: Cytotoxicity / viability of CD4 T cells in proliferation assay; format: cell-based, human; settings: 4 days, decreased cell viability (gray boxes in Fig. 2)
Experimental: (§2) Figure 2. […] CD4 T cell proliferation was assessed upon stimulation with anti-CD3ϵ by CFSE dilution as a measure for cellular proliferation, analyzed on day 4. For rapamycin and AX-024–treated cells, the dashed line indicates control proliferation at a DMSO concentration of 0.2%. For CD3ϵ-derived peptides 11Rwt, 11R085, and 11Rscr, the dashed line indicates control proliferation at 0.3% DMSO, 0.3% PBS. 11Rwt has sequence R11-G3-[…], 11R085 R11-G3-Q(dK)[…], and 11Rscr R11-G3-[…](dK)PQP. A polyarginine tag is used to enable cell penetration of the peptides ([10]). The gray boxes indicate concentrations of compound leading to decreased cell viability. These values should be disregarded. Binding of peptides 11Rwt and 11R085, but not 11Rscr, to Nck-SH3.1 was confirmed by NMR spectroscopy (Fig. S1). Asterisks, p < 0.05 as determined by a repeated-measure one-way analysis of variance with Holm–Sidak's multiple-comparison test to DMSO/PBS. Dotted lines, mean DMSO/PBS values. Error bars, S.D.
as §1

CD4 T cell proliferation = CD4 T cell proliferation by CFSE dilution, anti-CD3 stimulation; format: cell-based, human; settings: concentrations up to 1 μM; anti-CD3, CFSE dilution, day 4, 0.3% DMSO/0.3% PBS control
Experimental: as §2, §1

Nck1-SH3.1 [1] = target: T1, Nck1-SH3.1 (Homo sapiens, UniProt P16333); experiment: NMR binding of poly-Arg CD3ϵ-derived peptides to Nck1-SH3.1; settings: Fig. S1
T1 construct: His10-Avi-TEV-Nck1-SH3.1 (residues 1–61, MM 11,847 Da) was biotinylated and immobilized via streptavidin; made in house; host or cells: Escherichia coli BL21 (DE3)
Experimental: NMR spectra were recorded on a Bruker 600-MHz Avance NEO spectrometer equipped with a cryogenic QCI probe head at 27 °C in 25 mM […], 150 mM NaCl. The Topspin 4.0 software (Bruker, Fällanden) was used for spectrometer operation and data processing. For ^1H ligand-observed measurements, a relaxation filtered pulse sequence utilizing a spinlock of 50 ms was applied. 1D spectra were acquired with 128 scans, a sweep width of 26 ppm, and an acquisition time of 2 s. 2D ^1H-^15N HSQC spectra with natural ^15N isotope abundance were recorded over 72 h with a spectral width of 16 ppm and 35 ppm in the proton and nitrogen dimensions, respectively, with 256 increments (complex) and 1000 scans per increment. A relaxation delay of 1 s was used between scans. For the DOSY measurements (reviewed in Ref. [51]), the Bruker pulse sequence ledbpgp2s with a diffusion delay of 50 ms and a gradient length of 600 μs was used. The gradient strength was varied from 5 to 95% to record 16 increments of 512 scans with a sweep width of 18 ppm and a relaxation delay of 1 s.
Samples for ligand-observed measurements were prepared in 25 mM sodium phosphate buffer, pH 6.5, 150 mM NaCl. One sample contained 50 μM AX-024, and the other contained 50 μM CD3ϵ peptide.

Nck1-SH3.1 [2] = target: T1, Nck1-SH3.1; experiment: SPR binding to immobilized Nck1-SH3.1; settings: SPR, peptide up to 200 μM, Nck1-SH3.1 1260 RU, single titration, qualitative
Experimental: SPR experiments were conducted on a T200 Biacore instrument (GE Healthcare, Uppsala, Sweden) at 20 °C in 10 mM HEPES/NaOH, pH 7.8, 150 mM NaCl, 1 mM TCEP. […] Streptavidin is immobilized on the CAP sensor by way of double-strand DNA formation. A ssDNA is covalently coupled to the sensor surface, and a complementary DNA strand, covalently linked to streptavidin, is hybridized. To regenerate the surface, the DNA duplex is dissociated by washing with high-ionic strength solution. […] The reference channel for binding studies contained the same streptavidin-coated surface blocked with biotin.
Five replicates were performed for each CD3ϵ concentration (Table S1), whereas for the qualitative assessment of the APVA variant, only a single titration was performed.
SPR equilibrium signals were corrected for the signal in the reference channel and buffer contributions. The resulting SPR amplitudes were plotted as a function of peptide concentration, and a simple binding equation describing a Langmuir adsorption isotherm was fit to the data (GraphPad Prism) to extract the equilibrium dissociation constant Kd. (Eq. 1) RU=RUmax·[peptide]/[peptide]+Kd

binding to Nck1-SH3.1 by NMR (Nck1-SH3.1 [1])	fold weaker binding of APVA mutant than WT CD3ϵ peptide (Nck1-SH3.1 [2])	Substance	effect on CD8 T cell proliferation (CD8 T cell proliferation)	concentration at which peptides were cytotoxic (CD4 T cell)	inhibition of CD4 T cell proliferation by peptides (CD4 T cell proliferation)
does not	–	R11-G3-PKVRECPDYK(dK)PQP [11Rscr, scrambled peptide with the same composition as 11R085 but lacking the canonical PRS]	did not affect CD8 T cell proliferation	exceeding 6 μM	none of the peptides inhibited CD4 T cell proliferation
bind to Nck1-SH3.1	–	R11-G3-Q(dK)KECPPPVPKRDY [11R085, R11-G3-tagged cell-penetrating CD3ϵ-derived peptide]	did not affect CD8 T cell proliferation	exceeding 6 μM	none of the peptides inhibited CD4 T cell proliferation
bind to Nck1-SH3.1	–	R11-G3-RGYNKERPPPVPNPDY [11Rwt, R11-G3-tagged cell-penetrating CD3ϵ-derived peptide]	did not affect CD8 T cell proliferation	exceeding 6 μM	none of the peptides inhibited CD4 T cell proliferation
–	~10 -fold	RGQNKERPAPVANPDY-NH2 [APVA variant of CD3ϵ peptide]	–	–	–
